Test results from US20230399341A1, “7-PHENYL SUBSTITUTED 2-AMINOQUINAZOLINE INHIBITORS OF HPK1” (MERCK SHARP & DOHME LLC, priority 2020, published 2023).

Target: T1, Human HPK1, catalytic domain (Homo sapiens, UniProt Q92918)
T1 sequence (Q92918 1-346): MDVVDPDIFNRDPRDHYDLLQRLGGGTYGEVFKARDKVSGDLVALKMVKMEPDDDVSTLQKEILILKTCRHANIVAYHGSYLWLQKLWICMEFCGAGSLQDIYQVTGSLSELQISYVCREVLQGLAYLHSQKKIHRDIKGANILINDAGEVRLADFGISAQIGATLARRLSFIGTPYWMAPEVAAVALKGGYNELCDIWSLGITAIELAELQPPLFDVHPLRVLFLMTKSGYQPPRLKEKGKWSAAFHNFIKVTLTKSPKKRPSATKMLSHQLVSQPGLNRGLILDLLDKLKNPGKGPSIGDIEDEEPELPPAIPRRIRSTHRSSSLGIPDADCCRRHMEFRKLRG
Assay: HPK1-SLP76 TR-FRET Assay
Assay type: biochemical
Details: 75 pM HPK1, ATP 10 uM, SLP76 10 nM, 30 min pre-incubation, 60 min reaction

Q: For `COc1cc2c(cc1Nc1ncc3ccc(-c4cnn(CCO)c4)cc3n1)CN(C)CC2` [Compound 1-13, 2-(4-{2-[(6-methoxy-2-methyl-1,2,3,4-tetrahydroisoquinazolin-7-yl)amino]quinazolin-7-yl}-1H-pyrazol-1-yl)ethan-1-ol], which IC50 is on record?
A: 7.7 nM

Q: `Cc1c(-c2cc3nc(Nc4cc5c(cc4F)CCN(C)C5)ncc3c(N)c2F)cnc2c1NCCO2` [Compound 2-59, 6-fluoro-N~2~-(6-fluoro-2-methyl-1,2,3,4-tetrahydroisoquinolin-7-yl)-7-(8-methyl-2,3-dihydro-1H-pyrido[2,3-b][1,4]oxazin-7-yl)quinazoline-2,5-diamine] was tested. Which IC50 did it give?
A: 0.0508 nM

Q: `CCS(=O)(=O)Cc1ccc(Nc2ncc3c(N)c(F)c(-c4cnc5c(c4C)NCC(C)O5)cc3n2)c(F)c1` (single isomer, unassigned) [Compound 2-125, (R or S)-7-(3,8-dimethyl-2,3-dihydro-1H-pyrido[2,3-b][1,4]oxazin-7-yl)-N2-(4-((ethylsulfonyl)methyl)-2-fluorophenyl)-6-fluoroquinazoline-2,5-diamine] was tested. Which IC50 did it give?
A: 0.105 nM

Q: `COc1cc2c(cc1Nc1ncc3ccc(N[C@H]4CCN(C)C4=O)cc3n1)CN(C)CC2` [Compound 3-49, (3S)-3-({2-[(6-methoxy-2-meth-yl-1,2,3,4-tetrahydroisoquinolin-7-yl)amino]quinazolin-7-yl}-amino)-1-methylpyrrolidin-2-one] was tested. Which IC50 did it give?
A: 96.7 nM

Q: `Cc1c(-c2cc3nc(Nc4ccccc4Cl)ncc3c(N)c2F)cnc2c1NCCO2` [Compound 2-31, N~2~-(2-chlorophenyl)-6-fluoro-7-(8-methyl-2,3-dihydro-1H-pyrido[2,3-b][1,4]oxazin-7-yl)quinazoline-2,5-diamine] was tested. Which IC50 did it give?
A: 4.62 nM

Q: With `COc1cc2c(cc1Nc1ncc3ccc(-c4cncc(C#N)c4)cc3n1)CNCC2` [Compound 1-36, 5-{2-[(6-methoxy-1,2,3,4-tetrahydroisoquinolin-7-yl)amino]quinazolin-7-yl}pyridine-3-carbonitrile] as the molecule, how does the IC50 read?
A: 182 nM

Q: How did the IC50 turn out when `COc1cc2c(cc1Nc1ncc3ccc(-c4cnc(N)nc4C)cc3n1)CN(C)CC2` [Compound 1-19, 7-(2-amino-4-methylpyrimidin-5-yl)-N-(6-methoxy-2-methyl-1,2,3,4-tetrahydroisoquinazolin-7-yl)quinazolin-2-amine] was run?
A: 2.57 nM

Q: `CCS(=O)(=O)Cc1ccc(Nc2ncc3c(N)c(F)c(-c4cnc5c(c4C)NCCO5)c(Cl)c3n2)cc1` [Compound 2-134] was tested. Which IC50 did it give?
A: 57.7 nM

Q: How did the IC50 turn out when `COc1cc2c(cc1Nc1ncc3ccc(Nc4cc(C(N)=O)ccn4)cc3n1)CN(C)CC2` [Compound 3-41, 2-({2-[(6-methoxy-2-methyl-1,2,3,4-tetrahydroisoquinolin-7-yl)amino]quinazolin-7-yl}-amino)pyridine-4-carboxamide] was run?
A: 10 nM

Q: With `COc1cc2c(cc1Nc1ncc3ccc(-c4ccc5c(c4)COCC5)cc3n1)CNCC2` [Compound 1-76, 7-(3,4-dihydro-1H-2-benzopyran-7-yl)-N-(6-methoxy-1,2,3,4-tetrahydroisoquinolin-7-yl)quinazolin-2-amine] as the molecule, how does the IC50 read?
A: 218 nM

Q: For `COc1cc2c(cc1Nc1ncc3ccc(NCC4CCS(=O)(=O)C4)cc3n1)CN(C)CC2` (racemic) [Compound 3-37, (S and R)-3-1({2-[(6-methoxy-2-methyl-1,2,3,4-tetrahydroiso-quinolin-7-yl)amino]quinazolin-7-yl}amino)methyl]-1lambda~ 6~-thiolane-1,1-dione], which IC50 is on record?
A: 73.1 nM

Q: With `Cc1c(-c2c(F)c(N)c3cnc(Nc4ccc(CS(=O)(=O)C5CC5)cc4)nc3c2Cl)cnc2c1NCCO2` [Compound 2-137, 8-chloro-N2-(4-((cyclopropylsulfonyl)methyl)phenyl)-6-fluoro-7-(8-methyl-2,3-dihydro-1H-pyrido[2,3-b][1,4]oxazin-7-yl)quinazoline-2,5-diamine] as the molecule, how does the IC50 read?
A: 100 nM

Q: Which IC50 does the source give for `Cc1c(-c2cc3nc(Nc4ccc5c(c4)CN(C)CC54CC4)ncc3c(N)c2F)cnc2c1NCCO2` [Compound 2-73, 6-fluoro-7-(8-methyl-2,3-dihydro-1H-pyrido[2,3-b][1,4]oxazin-7-yl)-N~2~- (2′-methyl-2′,3′-dihydro-1′H-spiro[cyclopropane-1,4′-isoquinolin]-7′-yl)quinazoline-2,5-diamine] here?
A: 0.0508 nM

Q: Which IC50 does the source give for `COc1cc2c(cc1Nc1ncc3ccc([C@H]4CC[C@H](CN)CC4)cc3n1)CN(C)CC2` [Compound 5-2, 7-((1r,4r)-4-(aminomethyl)-cyclohexyl)-N-(6-methoxy-2-methyl-1,2,3,4-tetrahydroiso-quinolin-7-yl)quinazolin-2-amine] here?
A: 165 nM

Q: With `COc1cc2c(cc1Nc1ncc3ccc(-c4cncc(C(C)(C)O)c4)cc3n1)CN(C)CC2` [Compound 1-14, 2-(5-{2-[(6-methoxy-2-methyl-1,2,3,4-tetrahydroisoquinolin-7-yl)amino]quinazolin-7-yl}pyridin-3-yl)propan-2-ol] as the molecule, how does the IC50 read?
A: 55.3 nM

Q: How did the IC50 turn out when `Cc1c(-c2cc3nc(Nc4ccc5c(c4)C4CC5CN4C)ncc3c(N)c2F)cnc2c1NCCO2` (racemic) [Compound 2-79, (R,S and S,R)-6-fluoro-N2-(2-methyl-1,2,3,4-tetrahydro-1,4-methanoisoquinolin-7-yl)-7-(8-methyl-2,3-dihydro-1H-pyrido[2,3-b][1,4]oxazin-7-yl)quinazoline-2,5-diamine] was run?
A: 0.0305 nM

Q: For `Cc1ccncc1-c1cc2nc(Nc3ccc4c(c3)CN(C)CC4)ncc2c(N)c1F` [Compound 2-122, 6-fluoro-7-(4-methylpyridin-3-yl)-N~2~- (2-methyl-1,2,3,4-tetrahydroisoquinolin-7-yl)quinazoline-2,5-diamine], which IC50 is on record?
A: 0.22 nM

Q: Which IC50 does the source give for `COc1cc2c(cc1Nc1ncc3ccc(Nc4cc(S(C)(=O)=O)ccc4C)cc3n1)CN(C)CC2` [Compound 3-24, N~2~-(6-methoxy-2-methyl-1,2,3,4-tetrahydroisoquinolin-7-yl)-N~7~-[2-methyl-5-(meth-ylsulfonyl)phenyl]quinazoline-2,7-diamine] here?
A: 2.6 nM

Q: With `COc1cc2c(cc1Nc1ncc3ccc(OCc4ccc(N5CCNCC5)nc4)cc3n1)CN(C)CC2` [Compound 4-1, N-(6-methoxy-2-methyl-1,2,3,4-tetrahydroisoquin-olin-7-yl)-7-{[6-(piperazin-1-yl)pyridin-3-yl]methoxy}-quinazolin-2-amine] as the molecule, how does the IC50 read?
A: 15.2 nM

Q: Which IC50 does the source give for `COc1cc2c(cc1Nc1ncc3ccc(-c4cccc(C(C)(C)N)c4)cc3n1)CNCC2` [Compound 1-89, 7-[3-(2-aminopropan-2-yl)phenyl]-N-(6-methoxy-1,2,3,4-tetrahydroisoquinolin-7-yl)quinazolin-2-amine] here?
A: 156 nM

Q: `Cc1c(-c2cc3nc(Nc4ccc(C(C)S(C)(=O)=O)cc4)ncc3cc2F)cnc2c1NCCO2` (single isomer, unassigned) [Compound 1-126, (R of S)-6-fluoro-7-(8-methyl-2,3-dihydro-1H-pyrido[2,3-b][1,4]oxazin-7-yl)-N-{4-[1-(methylsulfonyl)ethyl]phenyl} quinazolin-2-amine] was tested. Which IC50 did it give?
A: 0.68 nM

Q: How did the IC50 turn out when `CNC(=O)C1CCc2cc(Nc3ncc4cc(F)c(-c5cnc6c(c5C)NCCO6)cc4n3)ccc21` (single isomer, unassigned) [Compound 1-119, (R or S)-5-{[6-fluoro-7-(8-methyl-2,3-dihydro-1H-pyrido[2,3-b][1,4]oxazin-7-yl)quinazolin-2-yl]amino}-N-methyl-2,3-dihydro-1H-indene-1-carboxamide] was run?
A: 1.17 nM
